# Measurements as given in PubChem BioAssay (NCI).
#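 Compound exposure: 48 hours, 5 concentrations, 96-well plates. TGI: concentration producing complete growth inhibition.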
# What was measured:
# Assay in all cases: inhibition of tumour cell growth, NCI panel, 48 h
# SNB-75 CNS = test system: SNB-75 CNS
# MOLT-4 leukemia = test system: MOLT-4 leukemia
# HOP-62 NSCLC = test system: HOP-62 NSCLC
# KM20L2 colon = test system: KM20L2 colon
# K-562 leukemia = test system: K-562 leukemia
# KM12 colon = test system: KM12 colon
# NCI-H460 lung = test system: NCI-H460 lung
# RXF 393 renal = test system: RXF 393 renal
# SNB-19 CNS = test system: SNB-19 CNS
# SW-620 colon = test system: SW-620 colon
# OVCAR-4 ovarian = test system: OVCAR-4 ovarian
# SF-295 CNS = test system: SF-295 CNS
# M19-MEL melanoma = test system: M19-MEL melanoma
# RPMI-8226 leukemia = test system: RPMI-8226 leukemia
# UACC-257 melanoma = test system: UACC-257 melanoma
# LOX IMVI melanoma = test system: LOX IMVI melanoma
# M14 melanoma = test system: M14 melanoma
# OVCAR-8 ovarian = test system: OVCAR-8 ovarian
# SF-268 CNS = test system: SF-268 CNS
# NCI-H522 lung = test system: NCI-H522 lung
# 786-0 renal = test system: 786-0 renal
# DMS 114 small cell lung = test system: DMS 114 small cell lung
# EKVX NSCLC = test system: EKVX NSCLC
# NCI-H226 lung = test system: NCI-H226 lung
# OVCAR-5 ovarian = test system: OVCAR-5 ovarian
# IGROV1 ovarian = test system: IGROV1 ovarian
# HT29 colon = test system: HT29 colon
# SF-539 CNS = test system: SF-539 CNS
# HCT-15 colon = test system: HCT-15 colon
# SK-MEL-28 melanoma = test system: SK-MEL-28 melanoma
# HOP-92 NSCLC = test system: HOP-92 NSCLC
# LXFL 529 NSCLC = test system: LXFL 529 NSCLC
# SNB-78 CNS = test system: SNB-78 CNS
# A498 renal = test system: A498 renal
# DLD-1 colon = test system: DLD-1 colon
# UACC-62 melanoma = test system: UACC-62 melanoma
# ACHN renal = test system: ACHN renal
# HOP-18 NSCLC = test system: HOP-18 NSCLC
# HL-60(TB) leukemia = test system: HL-60(TB) leukemia
# CCRF-CEM leukemia = test system: CCRF-CEM leukemia
# A549 NSCLC = test system: A549 NSCLC
# NCI-H23 lung = test system: NCI-H23 lung
# DMS 273 small cell lung = test system: DMS 273 small cell lung
# SK-MEL-5 melanoma = test system: SK-MEL-5 melanoma
# SR leukemia = test system: SR leukemia
# HCT-116 colon = test system: HCT-116 colon
# U251 CNS = test system: U251 CNS
# SN12C renal = test system: SN12C renal
# HCC-2998 colon = test system: HCC-2998 colon
# SK-MEL-2 melanoma = test system: SK-MEL-2 melanoma
# OVCAR-3 ovarian = test system: OVCAR-3 ovarian
# COLO 205 colon = test system: COLO 205 colon
# MALME-3M melanoma = test system: MALME-3M melanoma
# XF 498 CNS = test system: XF 498 CNS
# SK-OV-3 ovarian = test system: SK-OV-3 ovarian
# CAKI-1 renal = test system: CAKI-1 renal
# UO-31 renal = test system: UO-31 renal
# TK-10 renal = test system: TK-10 renal
smiles,measurement,setting,value
C[n+]1cccc(NC(=O)c2ccc(NC(=O)C34CCC(C(=O)Nc5ccc(C(=O)Nc6ccc[n+](C)c6)cc5)(CC3)CC4)cc2)c1,TGI,SNB-75 CNS,78.7 µM
same,TGI,MOLT-4 leukemia,> 100 µM
same,TGI,HOP-62 NSCLC,> 100 µM
same,TGI,KM20L2 colon,> 100 µM
same,TGI,K-562 leukemia,> 100 µM
same,TGI,KM12 colon,22.7 µM
same,TGI,NCI-H460 lung,> 100 µM
same,TGI,RXF 393 renal,61.5 µM
same,TGI,SNB-19 CNS,> 100 µM
same,TGI,SW-620 colon,> 100 µM
same,TGI,OVCAR-4 ovarian,> 100 µM
same,TGI,SF-295 CNS,> 100 µM
same,TGI,M19-MEL melanoma,> 100 µM
same,TGI,RPMI-8226 leukemia,> 100 µM
same,TGI,UACC-257 melanoma,> 100 µM
same,TGI,LOX IMVI melanoma,> 100 µM
same,TGI,M14 melanoma,> 100 µM
same,TGI,OVCAR-8 ovarian,> 100 µM
same,TGI,SF-268 CNS,> 100 µM
same,TGI,NCI-H522 lung,> 100 µM
same,TGI,786-0 renal,> 100 µM
same,TGI,DMS 114 small cell lung,> 100 µM
same,TGI,EKVX NSCLC,> 100 µM
same,TGI,NCI-H226 lung,> 100 µM
same,TGI,OVCAR-5 ovarian,> 100 µM
same,TGI,IGROV1 ovarian,> 100 µM
same,TGI,HT29 colon,> 100 µM
same,TGI,SF-539 CNS,> 100 µM
same,TGI,HCT-15 colon,> 100 µM
same,TGI,SK-MEL-28 melanoma,> 100 µM
same,TGI,HOP-92 NSCLC,> 100 µM
same,TGI,LXFL 529 NSCLC,> 100 µM
same,TGI,SNB-78 CNS,> 100 µM
same,TGI,A498 renal,> 100 µM
same,TGI,DLD-1 colon,> 100 µM
same,TGI,UACC-62 melanoma,> 100 µM
same,TGI,ACHN renal,> 100 µM
same,TGI,HOP-18 NSCLC,> 100 µM
same,TGI,HL-60(TB) leukemia,9.33 µM
same,TGI,CCRF-CEM leukemia,> 100 µM
same,TGI,A549 NSCLC,> 100 µM
same,TGI,NCI-H23 lung,> 100 µM
same,TGI,DMS 273 small cell lung,25.9 µM
same,TGI,SK-MEL-5 melanoma,> 100 µM
same,TGI,SR leukemia,> 100 µM
same,TGI,HCT-116 colon,> 100 µM
same,TGI,U251 CNS,> 100 µM
same,TGI,SN12C renal,75.1 µM
CC(C)(O)C(O)COc1c2c(cc3oc(=O)ccc13)OCO2 (stereo not given),TGI,HCC-2998 colon,> 100 µM
same,TGI,SNB-75 CNS,> 100 µM
same,TGI,MOLT-4 leukemia,> 100 µM
same,TGI,HOP-62 NSCLC,> 100 µM
same,TGI,KM20L2 colon,> 100 µM
same,TGI,K-562 leukemia,> 100 µM
same,TGI,KM12 colon,> 100 µM
same,TGI,NCI-H460 lung,> 100 µM
same,TGI,RXF 393 renal,> 100 µM
same,TGI,SNB-19 CNS,> 100 µM
same,TGI,SK-MEL-2 melanoma,> 100 µM
same,TGI,SW-620 colon,> 100 µM
same,TGI,OVCAR-4 ovarian,> 100 µM
same,TGI,SF-295 CNS,> 100 µM
same,TGI,M19-MEL melanoma,> 100 µM
same,TGI,RPMI-8226 leukemia,> 100 µM
same,TGI,UACC-257 melanoma,> 100 µM
same,TGI,LOX IMVI melanoma,> 100 µM
same,TGI,OVCAR-3 ovarian,> 100 µM
same,TGI,M14 melanoma,> 100 µM
same,TGI,OVCAR-8 ovarian,> 100 µM
same,TGI,SF-268 CNS,> 100 µM
same,TGI,NCI-H522 lung,> 100 µM
same,TGI,COLO 205 colon,> 100 µM
same,TGI,786-0 renal,> 100 µM
same,TGI,DMS 114 small cell lung,> 100 µM
same,TGI,EKVX NSCLC,> 100 µM
same,TGI,NCI-H226 lung,> 100 µM
same,TGI,MALME-3M melanoma,> 100 µM
same,TGI,XF 498 CNS,> 100 µM
same,TGI,OVCAR-5 ovarian,> 100 µM
same,TGI,IGROV1 ovarian,> 100 µM
same,TGI,HT29 colon,> 100 µM
same,TGI,SF-539 CNS,> 100 µM
same,TGI,HCT-15 colon,> 100 µM
same,TGI,SK-MEL-28 melanoma,> 100 µM
same,TGI,HOP-92 NSCLC,> 100 µM
same,TGI,SK-OV-3 ovarian,> 100 µM
same,TGI,LXFL 529 NSCLC,> 100 µM
same,TGI,CAKI-1 renal,> 100 µM
same,TGI,UO-31 renal,> 100 µM
same,TGI,A498 renal,> 100 µM
same,TGI,DLD-1 colon,> 100 µM
same,TGI,UACC-62 melanoma,> 100 µM
same,TGI,ACHN renal,> 100 µM
same,TGI,HOP-18 NSCLC,> 100 µM
same,TGI,HL-60(TB) leukemia,> 100 µM
same,TGI,CCRF-CEM leukemia,> 100 µM
same,TGI,TK-10 renal,> 100 µM
same,TGI,A549 NSCLC,> 100 µM
same,TGI,NCI-H23 lung,> 100 µM
same,TGI,DMS 273 small cell lung,> 100 µM
same,TGI,SK-MEL-5 melanoma,> 100 µM
same,TGI,SR leukemia,> 100 µM
same,TGI,HCT-116 colon,> 100 µM
same,TGI,U251 CNS,> 100 µM
same,TGI,SN12C renal,> 100 µM
